Values quoted from earlier work in patent publication US7655259B2, “Delayed release carnitine” (SIGMA-TAU Industrie Farmaceutiche Riunite S.p.A, priority 1993, dated 2010).

Columns and labels:
[1] = in the human
[2] = given orally, carnitine deficient patients

Structure (SMILES)	half-life [1]	conversion to L-carnitine [2]
C[N+](C)(C)CC(O)CC(=O)[O-] [L-carnitine, 3-hydroxy-4-(trimethylamino-)butyrate]	approximately 30 minutes	–
C[N+](C)(C)CCCC(=O)[O-] [GBB, Gamma-butyrobetaine]	–	readily converted to L-carnitine
